This is an account of results in patent US10729693B2, “Compositions and methods for the treatment of endometriosis” (PONCE MEDICAL SCHOOL FOUNDATION, INC., priority 2018, dated 2020).

What all share (type): in vivo, rat
For series [1], the system named is mineralocorticoid receptor 2 mRNA. The series is described as follows: mRNA of mineralocorticoid receptor 2 within the adrenal glands. The conditions noted are these: compared to sham group. Here is the method: FIG. 18: mRNA of mineralocorticoid receptor 2. Within the adrenal glands of the same animals from the sham or endometriosis groups that received vehicle or antalarmin, the mRNA of the mineralocorticoid receptor 2 was measured. This receptor is in charge of binding adrenocorticotropic hormone (ACTH), which was elevated in animals that received antalarmin. The mineralocorticoid receptor mRNA expression is decreased in response to antalarmin as compared to the sham group. This could be due to a down regulation of the receptor in response to increased ACTH circulating levels. ** p<0.01.

Series [2] has as its system corticosterone, adrenocorticotropic hormone (ACTH), IL-6. Kind of series: ELISA of serum corticosterone and ACTH and of peritoneal fluid IL-6. The conditions noted are these: at sacrifice. An excerpt:
It was verified that the animals were deeply anesthetized. Rats were weighed, and a cytological smear taken to verify stage of the estrous cycle. The peritoneal and thoracic cavities were opened, and a blood sample was collected directly from the heart. Following this, peritoneal fluid was collected using a sterile plastic pipette. Examination was directed to the presence of endometriosis vesicles. The implants that developed into vesicles were excised from the mesentery, weighed and measured using a digital caliper. Classification of vesicles was carried out and assigned the following grades: grade 1=disappeared; grade 2=0.01-1.99 mm; grade 3=2-4.49 mm; grade 4=4.5-5.99 mm; grade 5=6.0 mm or larger. In sham animals, empty suture sites were counted and collected. In addition to the endometriosis vesicles, the adrenal glands were collected, all surrounding fatty tissue was removed, and the cleared adrenal glands were weighed. Additionally, tissues from colon and the left uterine horn were collected. All tissues were flash frozen and stored at −80° until further processing.
Serum and peritoneal fluid samples from animals were tested for levels of corticosterone, adrenocorticotropic hormone (ACTH) and the pro-inflammatory cytokine IL-6 following instructions in the commercial kits. The following kits were used: Corticosterone rat/mouse kit (Cat. #79175; IBL America, Minneapolis, Minn.); Rat IL-6 pre-coated ELISA kit (Cat. #437107; BioLegend, San Diego, Calif.); Mouse/rat ACTH ELISA kit (Cat. # AC018T-100, Calbiotech, El Cajon, Calif.).
In general terms: In an ELISA, binding on a coated surface is turned into a signal by an enzyme label.

Series [3] has as its system CRH, UCN1, CRHR1, CRHR2 and glucocorticoid receptor (GR) mRNA. The series is described as follows: qRT-PCR of mRNA levels in uterus and endometriosis vesicles. Particulars: normalized to sham uterus, day 60. Here is the method:
Endometriosis vesicles and normal uterine tissue from endometriosis or sham rats, were lysed in an RLT buffer (QIAGEN, Germantown, Md.) using the BULLET BLENDER Tissue Homogenizer (NEXT ADVANCE, Averill Park, N.Y.). The total RNA from the lysates were extracted according to RNEASY Mini Kit manufacturer's protocol (QIAGEN, Germantown, Md.). RNA concentration and purity were measured on a NanoDrop™ 2000 UV spectrophotometer (Thermo Scientific™, Wilmington, USA). Concentration and quality of RNA samples were acquired based on the ratio of absorbance at 260/280 nm in the spectrophotometer. To carry out the synthesis of cDNA from RNA samples a total reaction volume of 20 μl including 0.1 μg of total RNA concentration and synthesis reagents was used. A iScript™ cDNA Synthesis Kit was used according to manufacturer's protocol (BIO-RAD, Hercules, Calif.). Reactions were carried out in T-100™ thermal cycler (BIO-RAD, Hercules, Calif.). RT-PCR running method was as follows: 25° C. for 5 min, 42° C. for 30 min, 85° C. for 5 min. Samples were stored at −80° C. for later experimentation or qRT-PCR.
Real time quantitative PCR (qPCR) was used to evaluate changes in mRNA expression. For this, 25 μl of a total volume of reaction assay was used with 1:10 dilution of cDNA with iQ™ SYBR Green Supermix (BIO-RAD Hercules, Calif.) in a 96 well plate according to the manufacturer protocol and amplified in a Quant Studio™ 12 K Flex Real time PCR System (Applied Biosystems™, Carlsbad, Calif.). Commercial primers for CRH, UCN1 CRHR1, CRHR2 and glucocorticoid receptor (GR) were purchased from QIAGEN (Germantown, Md.). Real time PCR cycles protocol was as follows: 95° C. for 10 min. for enzyme activation followed by 40 cycles of denaturing at 95° C. for 15 sec. and annealing at 60° C. for 1 min. All changes in gene expression were normalized against GAPDH of each sample. CT values and changes per gene expression level were automatically analyzed by the Quantstudio™ 12 K Flex Software (Applied Biosystems™, Carlsbad, Calif.). All samples were run in duplicate. For comparison purposes, mRNA from sham rats were always run within the same plate as experimental samples from vehicle treated and antalarmin treated groups.
GraphPad Prism 6.0 (GraphPad Software, San Diego, Calif.) was used to prepare graphs and run statistical analyses. Data is presented as mean difference+SEM and a p value <0.05 was considered statistically significant. The variability between groups was first assessed followed by a test for outlier values. […] A One-way analysis of variance (ANOVA) was used to compare behaviors. A one-sample t-test against the sham rats value normalized to 1.0. was used to assess RT-PCR results. A repeated measures One-way ANOVA was used to compare changes in weight gain between treatment groups.
(In general: Real-time PCR tracks product formation cycle by cycle.)

The nature of series [4]: Body weight monitoring of rats with endometriosis. Particulars: vs vehicle. An excerpt: Female Sprague Dawley rats of 60 days old were used in the experiments (weighing between 190-220 grams). Rats were purchased from Ponce Research Institute Animal Facilities and littermates were never assigned to the same experimental group. Rats were housed two per cage and kept in a 12-hour light/dark cycle with food and water ad libitum. All experimental procedures were approved by the Ponce Health Sciences University (protocol #202) and the University of Texas at Rio Grande Valley (protocol #2016-004) Institutional Animal Care and Use Committees and adhere to the NIH Guide for the Care and Use of Laboratory Animals. Rats were weighed twice per week to monitor their adequate development and once a day during the drug administration period; also, estrous cycles were monitored before and after treatment to assess possible effects of the drug on reproductive cyclicity.
Inconsistencies in the effect of antalarmin on […] rodent body weight can happen. The Group 2 rat weight changes were monitored during the drug administration period and every week afterwards during the development of endometriosis.

Consider `CCCCN(CC)c1nc(C)nc2c1c(C)c(C)n2-c1c(C)cc(C)cc1C` [antalarmin], for which the “mineralocorticoid receptor 2 mRNA expression in adrenal glands” value in series [1] is “decreased”. In addition, in series [2] (53 days after treatment), the “IL-6 in peritoneal fluid” value was “did not produce any change”. In addition, in series [2] (day 60), the serum corticosterone entry was “slightly elevated”. The “serum adrenocorticotropic hormone (ACTH)” value in series [2] (day 60, compared to vehicle group) is “significantly elevated levels”. In addition, in series [3], the “UCN1 mRNA in uterus and vesicles” value is on record as “not altered”; the “glucocorticoid receptor (GR) mRNA in uterus” value is recorded as “no changes in uterus”; the “glucocorticoid receptor (GR) mRNA in vesicles” value is given as “significant mRNA fold increase”. In addition, the “CRHR2 mRNA in uterus and vesicles” value in series [3] (increase only in vesicles of vehicle animals) is given as “No other changes were observed”. The “CRHR1 mRNA in endometriosis vesicles” value in series [3] (increased in vehicle group) is “this increase was not observed”. Moreover, the “CRH mRNA in uterus and vesicles” value in series [3] (two-fold increase in vehicle rats) is on record as “this increase was not observed”. Further, the “weight gain in subsequent weeks” value in series [4] (by week 7 and 8 after endometriosis induction) was “significantly lower weight gain”. Besides, in series [4] (day 7 and 2 days after treatment stopped), the “body weight during and just after drug administration” value was “weighed significantly less”.
